Data published in article PMC8037784 (Cancers, 2021).
“And” between values parts separate entries of the source, which are not always exact repeats. Identical values can stand only once.

Experiments:
[1] = tested on: CYP3A4; details: cited from earlier work
[2] = Organ distribution of lenvatinib in rats with or without liver RT; assay type: in vivo, Sprague-Dawley rats; details: rat; for concentration at 6 h: Sprague-Dawley, po, 3 mg/kg; for concentration at 6 h / Concentration of lenvatinib in spleen: 6 h after administration
Description: (§1) A freely moving rat model was designed for the current study. The rats were anesthetized and immobilized on a board while undergoing computed tomography to localize the whole liver or a central area measuring 1.5 cm × 1.5 cm for the SBRT technique. For the whole liver field, the cranial margin was set 5 mm from the top of the diaphragm, and the caudal margin was set 5 mm lower than the liver margin. The whole liver was targeted for irradiation. […] Data were collected from six rats per group.
A radiation dose of 2 Gy was considered the daily conventional EBRT dose or the off-target dose around the target that received an ablation RT dose. A dose of 9 Gy was used to simulate SBRT. […] Rats were initially anesthetized with pentobarbital (50 mg/kg, i.p.) and remained anesthetized throughout the experimental period. After surgery, the rats were placed in an experimental cage and allowed to recover for 1 day.
The brain, liver, heart, spleen, lung, and kidney were collected and weighed. These collected samples were stored at −20 °C until analysis.
The thawed organ samples were homogenized in 50% aqueous acetonitrile (the ratio of sample weight and volume was 1:5), and the homogenate was centrifuged at 13,000× g for 10 min at 4 °C. The supernatant was collected, placed in brown Eppendorf tubes, and stored at −20 °C until analysis. Briefly, each organ sample (50 μL) was combined with 150 μL of IS solution (diethylstilbestrol) for protein precipitation. Finally, 20 μL of filtrate was subjected to HPLC analysis.

[3] = in vivo; design: species or system Sprague-Dawley rats; details: Sprague-Dawley, rat, po, 3 mg/kg
Protocol: The HPLC system consisted of a chromatographic pump (LC−20AT), an online injector (SIL−20C) equipped with a 10 μL sample loop to inject the sample, and an ultraviolet detector (SPD-M20A).
as §1
A radiation dose of 2 Gy was considered the daily conventional EBRT dose or the off-target dose around the target that received an ablation RT dose. A dose of 9 Gy was used to simulate SBRT. […] Rats were initially anesthetized with pentobarbital (50 mg/kg, i.p.) and remained anesthetized throughout the experimental period. […]
PK parameters, including the area under the concentration–time curve (AUC), clearance (CL), elimination half-life (t1/2), volume of distribution at steady state (Vss), and mean residence time (MRT), were calculated using the PK calculation software WinNonlin Standard Edition, Version 1.1 (Scientific Consulting, Apex, NC, USA) by a compartmental method.

[4] = RT2Gy concurrent with lenvatinib
[5] = RT9Gy concurrent with lenvatinib

SMILES: COc1cc2nccc(Oc3ccc(NC(=O)NC4CC4)c(Cl)c3)c2cc1C(N)=O [lenvatinib, Lenvatinib]
- Oxidative metabolism [1]: mediated primarily by CYP3A4
- concentration at 6 h ([2]; brain, Concentration of lenvatinib in brain, 3 mg/kg p.o., RT2Gy concurrent with lenvatinib): 0 ng/mL
- concentration at 6 h ([2]; brain, Concentration of lenvatinib in brain, 3 mg/kg p.o., RT2Gy followed by lenvatinib): 0 ng/mL
- concentration at 6 h ([2]; brain, Concentration of lenvatinib in brain, 3 mg/kg p.o., RT9Gy concurrent with lenvatinib): 0 ng/mL
- concentration at 6 h ([2]; brain, Concentration of lenvatinib in brain, 3 mg/kg p.o., RT9Gy followed by lenvatinib): 0 ng/mL
- concentration at 6 h ([2]; brain, Concentration of lenvatinib in brain, 3 mg/kg p.o., lenvatinib only): 0 ng/mL
- concentration at 6 h ([2]; heart, Concentration of lenvatinib in heart, 3 mg/kg p.o., RT2Gy concurrent with lenvatinib): 32 ± 40 ng/mL
- concentration at 6 h ([2]; heart, Concentration of lenvatinib in heart, 3 mg/kg p.o., RT2Gy followed by lenvatinib): 74 ± 40 ng/mL
- concentration at 6 h ([2]; heart, Concentration of lenvatinib in heart, 3 mg/kg p.o., RT9Gy concurrent with lenvatinib): 15 ± 40 ng/mL
- concentration at 6 h ([2]; heart, Concentration of lenvatinib in heart, 3 mg/kg p.o., RT9Gy followed by lenvatinib): 78 ± 40 ng/mL
- concentration at 6 h ([2]; heart, Concentration of lenvatinib in heart, 3 mg/kg p.o., lenvatinib only): 50 ± 50 ng/mL
- concentration at 6 h ([2]; kidney, Concentration of lenvatinib in kidney, 3 mg/kg p.o., RT2Gy concurrent with lenvatinib): 113 ± 30 ng/mL
- concentration at 6 h ([2]; kidney, Concentration of lenvatinib in kidney, 3 mg/kg p.o., RT2Gy followed by lenvatinib): 230 ± 50 ng/mL
- concentration at 6 h ([2]; kidney, Concentration of lenvatinib in kidney, 3 mg/kg p.o., RT9Gy concurrent with lenvatinib): 129 ± 50 ng/mL
- concentration at 6 h ([2]; kidney, Concentration of lenvatinib in kidney, 3 mg/kg p.o., RT9Gy followed by lenvatinib): 223 ± 50 ng/mL
- concentration at 6 h ([2]; kidney, Concentration of lenvatinib in kidney, 3 mg/kg p.o., lenvatinib only): 175 ± 50 ng/mL
- concentration at 6 h ([2]; liver, Concentration of lenvatinib in liver, 3 mg/kg p.o., RT2Gy concurrent with lenvatinib): 72 ± 60 ng/mL
- concentration at 6 h ([2]; liver, Concentration of lenvatinib in liver, 3 mg/kg p.o., RT2Gy followed by lenvatinib): 158 ± 90 ng/mL
- concentration at 6 h ([2]; liver, Concentration of lenvatinib in liver, 3 mg/kg p.o., RT9Gy concurrent with lenvatinib): 93 ± 50 ng/mL
- concentration at 6 h ([2]; liver, Concentration of lenvatinib in liver, 3 mg/kg p.o., RT9Gy followed by lenvatinib): 161 ± 70 ng/mL
- concentration at 6 h ([2]; liver, Concentration of lenvatinib in liver, 3 mg/kg p.o., lenvatinib only): 104 ± 50 ng/mL
- concentration at 6 h ([2]; lung, Concentration of lenvatinib in lung, 3 mg/kg p.o., RT2Gy concurrent with lenvatinib): 33 ± 40 ng/mL
- concentration at 6 h ([2]; lung, Concentration of lenvatinib in lung, 3 mg/kg p.o., RT2Gy followed by lenvatinib): 92 ± 30 ng/mL
- concentration at 6 h ([2]; lung, Concentration of lenvatinib in lung, 3 mg/kg p.o., RT9Gy concurrent with lenvatinib): 42 ± 50 ng/mL
- concentration at 6 h ([2]; lung, Concentration of lenvatinib in lung, 3 mg/kg p.o., RT9Gy followed by lenvatinib): 75 ± 30 ng/mL
- concentration at 6 h ([2]; lung, Concentration of lenvatinib in lung, 3 mg/kg p.o., lenvatinib only): 108 ± 40 ng/mL
- concentration at 6 h ([2]; spleen, Concentration of lenvatinib in spleen, 3 mg/kg p.o., RT2Gy followed by lenvatinib): 73 ± 40 ng/mL
- concentration at 6 h ([2]; spleen, Concentration of lenvatinib in spleen, 3 mg/kg p.o., RT9Gy followed by lenvatinib): 60 ± 60 ng/mL
- concentration at 6 h ([2]; spleen, Concentration of lenvatinib in spleen, 3 mg/kg p.o., lenvatinib only): 30 ± 50 ng/mL
- Concentration of lenvatinib in spleen ([2]; 3 mg/kg p.o., RT2Gy concurrent with lenvatinib): 0 ng/mL
- Concentration of lenvatinib in spleen ([2]; 3 mg/kg p.o., RT9Gy concurrent with lenvatinib): 0 ng/mL
- Detection of lenvatinib in the brain ([2]; 3 mg/kg p.o., with or without RT): not detected
- Heart concentration decreased compared with the sham group [2, 4]: 36.0%
- Kidney concentration decreased compared with the sham group [2, 4]: 35.4%
- Liver concentration decreased compared with the sham group [2, 4]: 30.8%
- Lung concentration decreased compared with the sham group [2, 4]: 69.4%
- Spleen concentration decreased compared with the sham group [2, 4]: 100.0%
- Heart concentration increased compared with the sham group ([2]; RT2Gy followed by lenvatinib): 48.0%
- Kidney concentration increased compared with the sham group ([2]; RT2Gy followed by lenvatinib): 31.4%
- Liver concentration increased compared with the sham group ([2]; RT2Gy followed by lenvatinib): 51.9%
- Lung concentration decreased compared with the sham group ([2]; RT2Gy followed by lenvatinib): 15% and 14.8%
- Spleen concentration increased compared with the sham group ([2]; RT2Gy followed by lenvatinib): 143.3%
- Heart concentration decreased compared with the sham group [2, 5]: 70.0%
- Kidney concentration decreased compared with the sham group [2, 5]: 26.2%
- Liver concentration decreased compared with the sham group [2, 5]: 10.6%
- Lung concentration decreased compared with the sham group [2, 5]: 61.1%
- Spleen concentration decreased compared with the sham group [2, 5]: 100%
- Heart concentration increased compared with the sham group ([2]; RT9Gy followed by lenvatinib): 56.0%
- Kidney concentration increased compared with the sham group ([2]; RT9Gy followed by lenvatinib): 27.4%
- Liver concentration increased compared with the sham group ([2]; RT9Gy followed by lenvatinib): 54.8%
- Lung concentration decreased compared with the sham group ([2]; RT9Gy followed by lenvatinib): 31% and 30.6%
- Spleen concentration increased compared with the sham group ([2]; RT9Gy followed by lenvatinib): 100%
- Increase of concentration in the heart ([2]; sequential RT regimen): 50%
- Increase of concentration in the kidneys ([2]; sequential RT regimen): 30%
- Increase of concentration in the liver ([2]; sequential RT regimen): 50%
- Increase of concentration in the spleen ([2]; sequential regimen): more than 100%
- concentration at 60 min [3]: 940 ng/mL
